# Patent US9499550B2 (BRISTOL-MYERS SQUIBB COMPANY, priority 2012, dated 2016)
# Read-outs that look alike come from different tables or passages of the source.
# Legend:
# [1] = tested on: HCV genotype 1b (Con1) replicon in HUH-7 cells; test: HCV replicon luciferase reporter assay, genotype 1b; type: cell-based; details: Hepatitis C virus, Huh-7, 72 h, 3 days incubation, read-out: LE_1b (EC50, range)
# How it was run: (§1)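 Replicon inhibition for both genotypes was measured as Renilla luciferase signal (EnduRen, 7.5 μM final, 2 h) after 3-day, 37° C exposure of replicon-bearing HUH-7 cells in 4% FCS DMEM, 0.5% DMSO. The 1b construct carries S1179I; the 1a H77 construct carries P1496L and S2204I. Twenty-point, 3-fold dilutions were fitted four-parametrically for EC50, and CC50 was taken from multiplexed Cell Titer-Blue.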
# [2] = tested on: HCV genotype 1a (H77 strain) replicon in HUH-7 cells; test: HCV replicon luciferase reporter assay, genotype 1a; type: cell-based; details: Hepatitis C virus, Huh-7, 72 h, 3 days incubation, read-out: LE_1a (EC50, range)
# How it was run: as §1
# [3] = HCV genotype 1b replicon luciferase assay, range class
# [4] = HCV genotype 1a replicon luciferase assay, range class
# [5] = GETYPE1B, HCV genotype 1b replicon luciferase
# [6] = GETYPE1A, HCV genotype 1a replicon luciferase
# [7] = HCV genotype 1b replicon luciferase
# [8] = HCV genotype 1a replicon luciferase
Compound,"EC50 [1, 3] [nM]","EC50 [2, 4] [nM]","EC50 [1, 7] [nM]","EC50 [2, 8] [nM]",further results
"COc1ccc2c(O[C@@H]3C[C@H]4C(=O)N[C@]5(C(=O)NS(=O)(=O)C6(C)CC6)C[C@H]5/C=C\CC[C@H](C)C[C@@H](C)[C@H](NC(=O)O[C@@H]5C[C@@H]6C[C@@H]6C5)C(=O)N4C3)nc(-c3ccc(OC(C)C)c(F)c3)cc2c1 [Compound 3071, (1R,3r,5S)-bicyclo[3.1.0]hexan-3-yl((2R,6S,7R,9S,13aS,14aR,16aS,Z)-2-((3-(3-fluoro-4-isopropoxyphenyl)-6-methoxyisoquinolin-1-yl)oxy)-7,9-dimethyl-14a-(((1-methylcyclopropyl)sulfonyl)carbamoyl)-5,16-dioxo-1,2,3,5,6,7,8,9,10,11,13a,14,14a,15,16,16a-hexadecahydrocyclopropa[e]pyrrolo[1,2-a][1,4]diazacyclopentadecin-6-yl)carbamate]",< 5.46,4.82 to 103,–,–,–
COc1ccc2c(O[C@@H]3C[C@H]4C(=O)N[C@]5(C(=O)NS(=O)(=O)C6(C)CC6)C[C@H]5/C=C\CC[C@@H](C)C[C@@H](C)[C@H](NC(=O)OC(C)(C)C(F)(F)F)C(=O)N4C3)cc(OC)nc2c1 [Compound 1213],–,–,–,–,"EC50 [1, 5]: 0.51 to 1 nM; EC50 [2, 6]: 1.01 to 5 nM"
"CC[C@@H]1C[C@H](C)CC/C=C\[C@@H]2C[C@@]2(C(=O)NS(=O)(=O)C2(C)CC2)NC(=O)[C@@H]2C[C@@H](Oc3nc4cc(OC)ccc4nc3Cl)CN2C(=O)[C@H]1NC(=O)OC(C)(C)C [Compound 4256, tert-butyl ((2R,6S,7R,9R,13aS,14aR,16aS,Z)-2-((3-chloro-7-methoxyquinoxalin-2-yl)oxy)-7-ethyl-9-methyl-14a-(((1-methylcyclopropyl)sulfonyl)carbamoyl)-5,16-dioxo-1,2,3,5,6,7,8,9,10,11,13a,14,14a,15,16,16a-hexadecahydrocyclopropa[e]pyrrolo[1,2-a][1,4]diazacyclopentadecin-6-yl)carbamate]",–,–,0.1 to 0.5,0.51 to 1,–
COc1ccc2c(Cl)cc(O[C@@H]3C[C@H]4C(=O)N[C@]5(C(=O)NS(=O)(=O)C6(CF)CC6)C[C@H]5/C=C\CC[C@@H](C)C[C@@H](C)[C@H](NC(=O)OC(C)(C)C(F)(F)F)C(=O)N4C3)nc2c1 [Compound 4200],–,–,–,–,"EC50 [1, 5]: < 5.46 nM; EC50 [2, 6]: 4.82 to 103 nM"
"COc1ccc(-c2nc(O[C@@H]3C[C@H]4C(=O)N[C@]5(C(=O)NS(=O)(=O)C6CC6)C[C@H]5/C=C\CC[C@H](C)C[C@@H](C)[C@H](NC(=O)OC(C)(C)C)C(=O)N4C3)c3ccc(OC)cc3n2)cc1 [Compound 5001, tert-butyl ((2R,6S,7R,9S,13aS,14aR,16aS,Z)-14a-((cyclopropylsulfonyl)carbamoyl)-2-((7-methoxy-2-(4-methoxyphenyl)quinazolin-4-yl)oxy)-7,9-dimethyl-5,16-dioxo-1,2,3,5,6,7,8,9,10,11,13a,14,14a,15,16,16a-hexadecahydrocyclopropa[e]pyrrolo[1,2-a][1,4]diazacyclopentadecin-6-yl)carbamate]",–,–,< 5.46,< 5.46,–
"[2H]C([2H])([2H])Oc1cnc(O[C@@H]2C[C@H]3C(=O)N[C@]4(C(=O)NS(=O)(=O)C5(C)CC5)C[C@H]4/C=C\CC[C@H](C)C[C@@H](C)[C@H](NC(=O)OC(C([2H])([2H])[2H])(C([2H])([2H])[2H])C(F)(F)F)C(=O)N3C2)c2ccccc12 [Compound 5104, 1,1,1,3,3,3-hexadeutero-2-(trifluoromethyl)propan-2-yl((2R,6S,7R,9S,13aS,14aR,16aS,Z)-7,9-dimethyl-14a-(((1-methylcyclopropyl)sulfonyl)carbamoyl)-5,16-dioxo-2-((4-(trideuteromethoxy)isoquinolin-1-yl)oxy)-1,2,3,5,6,7,8,9,10,11,13a,14,14a,15,16,16a-hexadecahydrocyclopropa[e]pyrrolo[1,2-a][1,4]diazacyclopentadecin-6-yl)carbamate]",–,–,< 5.46,< 5.46,–
"COc1cc2c(OC)cnc(O[C@@H]3C[C@H]4C(=O)N[C@]5(C(=O)NS(=O)(=O)C6(CO)CC6)C[C@H]5/C=C\CC[C@H](C)C[C@@H](C)[C@H](NC(=O)OC(C)(C)C)C(=O)N4C3)c2cc1F [Compound 4123, tert-butyl (2R,6S,7R,9S,13aS,14aR,16aS,Z)-2-(7-fluoro-4,6-dimethoxyisoquinolin-1-yloxy)-14a-(1-(hydroxymethyl)cyclopropylsulfonylcarbamoyl)-7,9-dimethyl-5,16-dioxo-1,2,3,5,6,7,8,9,10,11,13a,14,14a,15,16,16a-hexadecahydrocyclopropa[e]pyrrolo[1,2-a][1,4]diazacyclopentadecin-6-ylcarbamate]",–,–,4.82 to 103,4.82 to 103,–
"COc1ccc2c(O[C@@H]3C[C@H]4C(=O)N[C@]5(C(=O)NS(=O)(=O)C6(CF)CC6)C[C@H]5/C=C\CC[C@@H](C)C[C@@H](C)[C@H](NC(=O)OC(C)(C)C(C)(F)F)C(=O)N4C3)nccc2c1 [Compound 1143, 3,3-difluoro-2-methylbutan-2-yl((2R,6S,7R,9R,13aS,14aR,16aS,Z)-14a-(((1-(fluoromethyl)cyclopropyl)sulfonyl)carbamoyl)-2-((6-methoxyisoquinolin-1-yl)oxy)-7,9-dimethyl-5,16-dioxo-1,2,3,5,6,7,8,9,10,11,13a,14,14a,15,16,16a-hexadecahydrocyclopropa[e]pyrrolo[1,2-a][1,4]diazacyclopentadecin-6-yl)carbamate]",< 5.46,4.82 to 103,–,–,–
"[2H]C([2H])([2H])Oc1cnc(O[C@@H]2C[C@H]3C(=O)N[C@]4(C(=O)NS(=O)(=O)C5(C)CC5)C[C@H]4/C=C\CC[C@H](C)C[C@@H](C)[C@H](NC(=O)OC(C)(C)C)C(=O)N3C2)c2ccccc12 [Compound 5100, tert-butyl ((2R,6S,7R,9S,13aS,14aR,16aS,Z)-7,9-dimethyl-14a-(((1-methylcyclopropyl)sulfonyl)carbamoyl)-5,16-dioxo-2-((4-(trideuteromethoxy)isoquinolin-1-yl)oxy)-1,2,3,5,6,7,8,9,10,11,13a,14,14a,15,16,16a-hexadecahydrocyclopropa[e]pyrrolo[1,2-a][1,4]diazacyclopentadecin-6-yl)carbamate]",–,–,< 5.46,< 5.46,–
"C[C@@H]1CC/C=C\[C@@H]2C[C@@]2(C(=O)NS(=O)(=O)C2(C)CC2)NC(=O)[C@@H]2C[C@@H](Oc3nccc4c5c(ccc34)CCCO5)CN2C(=O)[C@@H](NC(=O)OC(C)(C)C(C)(F)F)[C@H](C)C1 [Compound 6060, 3,3-difluoro-2-methylbutan-2-yl((2R,6S,7R,9R,13aS,14aR,16aS,Z)-2-((3,4-dihydro-2H-pyrano[2,3-f]isoquinolin-7-yl)oxy)-7,9-dimethyl-14a-(((1-methylcyclopropyl)sulfonyl)carbamoyl)-5,16-dioxo-1,2,3,5,6,7,8,9,10,11,13a,14,14a,15,16,16a-hexadecahydrocyclopropa[e]pyrrolo[1,2-a][1,4]diazacyclopentadecin-6-yl)carbamate]",–,–,1.01 to 5,1.01 to 5,–
"CC[C@@H]1C[C@H](C)CC/C=C\[C@@H]2C[C@@]2(C(=O)NS(=O)(=O)C2(C)CC2)NC(=O)[C@@H]2C[C@@H](Oc3nccc4c(OC)cccc34)CN2C(=O)[C@H]1NC(=O)OC(C)(C)C(F)(F)F [Compound 3028, 1,1,1-trifluoro-2-methylpropan-2-yl((2R,6S,7R,9R,13aS,14aR,16aS,Z)-7-ethyl-2-((5-methoxyisoquinolin-1-yl)oxy)-9-methyl-14a-(((1-methylcyclopropyl)sulfonyl)carbamoyl)-5,16-dioxo-1,2,3,5,6,7,8,9,10,11,13a,14,14a,15,16,16a-hexadecahydrocyclopropa[e]pyrrolo[1,2-a][1,4]diazacyclopentadecin-6-yl)carbamate]",< 5.46,< 5.46,–,–,–
"COc1ccc2c(O[C@@H]3C[C@H]4C(=O)N[C@]5(C(=O)NS(=O)(=O)C6(CF)CC6)C[C@H]5/C=C\CC[C@@H](C)C[C@@H](C)[C@H](NC(=O)OC(C)(C)C(F)(F)F)C(=O)N4C3)nc(N3CCCC3)nc2c1 [Compound 3019, 1,1,1-trifluoro-2-methylpropan-2-yl((2R,6S,7R,9R,13aS,14aR,16aS,Z)-14a-(((1-(fluoromethyl)cyclopropyl)sulfonyl)carbamoyl)-2-((7-methoxy-2-(pyrrolidin-1-yl)quinazolin-4-yl)oxy)-7,9-dimethyl-5,16-dioxo-1,2,3,5,6,7,8,9,10,11,13a,14,14a,15,16,16a-hexadecahydrocyclopropa[e]pyrrolo[1,2-a][1,4]diazacyclopentadecin-6-yl)carbamate]",< 5.46,4.82 to 103,–,–,–
"CC[C@@H]1C[C@@H](C)CC/C=C\[C@@H]2C[C@@]2(C(=O)NS(=O)(=O)C2CC2)NC(=O)[C@@H]2C[C@@H](Oc3nccc4c5c(ccc34)N(C)CCO5)CN2C(=O)[C@H]1NC(=O)C(=O)N(C)C [Compound 5317, N1-((2R,6S,7R,9S,13aS,14aR,16aS,Z)-14a-((cyclopropylsulfonyl)carbamoyl)-7-ethyl-9-methyl-2-((4-methyl-3,4-dihydro-2H-[1,4]oxazino[2,3-f]isoquinolin-7-yl)oxy)-5,16-dioxo-1,2,3,5,6,7,8,9,10,11,13a,14,14a,15,16,16a-hexadecahydrocyclopropa[e]pyrrolo[1,2-a][1,4]diazacyclopentadecin-6-yl)-N2,N2-dimethyloxalamide]",–,–,4.82 to 103,4.82 to 103,–
